Assay results taken from patent publication US20060069132A1, “Azolecarboxamide herbicides” (priority 2004, published 2006).

Legend:
wheat = test: Test B postemergence herbicide test; format: in vivo, Triticum aestivum; set-up: key to Wheat plant response rating: 0 = no effect, 100 = complete control; settings: postemergence, visual rating, scale 0 (no effect) to 100 (complete control)
How it was run: (§1)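 Formulated test chemicals went onto postemergence plants measuring 2 to 18 cm, at one to four leaves. For the paddy assay, species had reached two leaves. Scoring took place 13–15 days later by eye, relative to untreated plants, using 0 for no effect up to 100 for full control.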

barnyardgrass [1] = test: Test A pre-/postemergence herbicide test; format: in vivo, Echinochloa crus-galli
How it was run: (§2)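 Visual injury scores on a 0–100 scale (100 = complete control) taken about ten days post-treatment in greenhouse against untreated controls; dash means no result. Treatments: preemergence soil spray and postemergence spray to runoff on one- to two-leaf plants 2 to 10 cm tall, surfactant-containing formulation.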

morningglory [2] = test: Test B pre-/postemergence herbicide test; format: in vivo, Ipomoea coccinea; settings: for Morningglory plant response rating: postemergence, scale 0 (no effect) to 100 (complete control)
How it was run: (§3)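 Response was scored visually 13 to 15 days after treatment against untreated greenhouse controls, 0 meaning no effect and 100 complete control. Formulations (solvent mixture plus surfactant) went onto soil after planting, onto foliage of 1- to 4-leaf plants, and onto 2-leaf plants in a flooded paddy set including rice and barnyardgrass.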

barnyardgrass [3] = test: Test B pre-/postemergence herbicide test; format: in vivo, Echinochloa crus-galli; settings: for Barnyardgrass plant response rating: postemergence, scale 0 (no effect) to 100 (complete control)
How it was run: as §3

Surinam grass = test: Test B pre-/postemergence herbicide test; format: in vivo, Urochloa decumbens; settings: for Surinam Grass plant response rating: postemergence, scale 0 (no effect) to 100 (complete control)
How it was run: (§4)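 Plants compared with untreated controls 13–15 days post-treatment and given a visual 0–100 injury score. Applications: preemergence to seeds; postemergence at 1- to 4-leaf (2–18 cm); paddy species flooded, 2-leaf stage. Vehicle non-phytotoxic, surfactant included.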

blackgrass = test: Test B postemergence herbicide test; format: in vivo, Alopecurus myosuroides; settings: postemergence, visual rating, scale 0 (no effect) to 100 (complete control)
How it was run: (§5)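 Visual control ratings, 0–100 versus untreated controls, taken after 13 to 15 days in the greenhouse. Blackgrass received a postemergence spray at the 1- to 4-leaf stage (2–18 cm); ducksalad, umbrella sedge and barnyardgrass were flooded-paddy treated at 2 leaves.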

barnyardgrass [4] = test: Test B flooded paddy test; format: in vivo, Echinochloa crus-galli; settings: 1000 g ai/ha, visual rating, scale 0 to 100 (0 no effect, 100 complete control), 13 to 15 days
How it was run: as §5

large crabgrass [5] = test: Test B pre-/postemergence herbicide test; format: in vivo, Digitaria sanguinalis; settings: for Crabgrass, Large plant response rating: postemergence, scale 0 (no effect) to 100 (complete control)
How it was run: as §4

velvetleaf [6] = test: Test A pre-/postemergence herbicide test; format: in vivo, Abutilon theophrasti
How it was run: as §2

lambsquarters = test: Test B pre-/postemergence herbicide test; format: in vivo, Chenopodium album; settings: for Lambsquarters plant response rating: postemergence, scale 0 (no effect) to 100 (complete control)
How it was run: as §4

giant foxtail [7] = test: Test A pre-/postemergence herbicide test; format: in vivo, Setaria faberi
How it was run: as §2

ducksalad = test: Test B flooded paddy test; format: in vivo, Heteranthera limosa; settings: 1000 g ai/ha, visual rating, scale 0 to 100 (0 no effect, 100 complete control), 13 to 15 days
How it was run: as §5

[8] = tested on: small flower umbrella sedge; test: Test B flooded paddy test; format: in vivo, Cyperus difformis; settings: 1000 g ai/ha, visual rating, scale 0 to 100 (0 no effect, 100 complete control), 13 to 15 days
How it was run: as §5

morningglory [9] = test: Test A pre-/postemergence herbicide test; format: in vivo, Ipomoea spp.
How it was run: as §2

redroot pigweed = test: Test A pre-/postemergence herbicide test; format: in vivo, Amaranthus retroflexus
How it was run: as §2

rice [10] = test: Test B flooded paddy test; format: in vivo, Oryza sativa; settings: 1000 g ai/ha, visual rating, scale 0 to 100 (0 no effect, 100 complete control), 13 to 15 days
How it was run: as §1

large crabgrass [11] = test: Test A pre-/postemergence herbicide test; format: in vivo, Digitaria sanguinalis
How it was run: as §2

rice [12] = test: Test B pre-/postemergence herbicide test; format: in vivo, Oryza sativa; settings: 0 = no effect, 100 = complete control, preemergence
How it was run: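 Greenhouse pot assay with simultaneous preemergence (treated seed) and postemergence (2–18 cm seedlings) applications of surfactant-containing, non-phytotoxic solvent formulations. Response scored visually 13–15 days later on a 0–100 scale, 100 meaning complete control.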

cocklebur = test: Test B pre-/postemergence herbicide test; format: in vivo, Xanthium strumarium; settings: for Cocklebur plant response rating: postemergence, scale 0 (no effect) to 100 (complete control)
How it was run: as §3

wild oat = test: Test B postemergence herbicide test; format: in vivo, Avena fatua; settings: postemergence, visual rating, scale 0 (no effect) to 100 (complete control)
How it was run: as §1

corn = test: Test B pre-/postemergence herbicide test; format: in vivo, Zea mays; settings: for Corn plant response rating: postemergence, scale 0 (no effect) to 100 (complete control)
How it was run: as §4

velvetleaf [13] = test: Test B pre-/postemergence herbicide test; format: in vivo, Abutilon theophrasti; settings: for Velvetleaf plant response rating: postemergence, scale 0 (no effect) to 100 (complete control)
How it was run: as §4

giant foxtail [14] = test: Test B pre-/postemergence herbicide test; format: in vivo, Setaria faberi; settings: for Foxtail, Giant plant response rating: postemergence, scale 0 (no effect) to 100 (complete control)
How it was run: as §4

pigweed = test: Test B pre-/postemergence herbicide test; format: in vivo, Amaranthus retroflexus; settings: for Pigweed plant response rating: postemergence, scale 0 (no effect) to 100 (complete control)
How it was run: as §4

[15] = Postemergence, 500 g ai/ha, 0 to 100 scale, 0 no effect, 100 complete control
[16] = Postemergence, 2000 g ai/ha, 0 to 100 scale, 0 no effect, 100 complete control
[17] = Preemergence, 2000 g ai/ha, visual rating, 0 to 100 scale (0 no effect, 100 complete control)
[18] = preemergence, 500 g ai/ha, visual injury, 0 to 100 scale (0 no effect, 100 complete control)
[19] = 125 g ai/ha, 0 = no effect, 100 = complete control, preemergence
[20] = 500 g ai/ha, visual rating, 0 = no effect, 100 = complete control, preemergence

For `C#CCNC(=O)c1cccc(NC(=O)c2sc(C(C)(C)C)nc2CC)n1` [Compound 217], the “Wheat plant response rating” value (wheat; 125 g ai/ha) was 0, the “Wheat plant response rating” value (wheat; 500 g ai/ha) was 0 and the “Barnyardgrass plant response rating” value (barnyardgrass [1]; [15]) was 0. For the same compound, the “Plant response rating, Barnyardgrass” value (barnyardgrass [1]; [16]) was 0, the “Barnyardgrass plant response rating” value (barnyardgrass [1]; [17]) was 0 and the “Barnyardgrass plant response rating” value (barnyardgrass [1]; [18]) was 0. For the same compound, the “Morningglory plant response rating (0 to 100 scale)” value (morningglory [2]; [19]) was 0, the “Plant response rating, Morningglory” value (morningglory [2]; [20]) was 0 and the “Morningglory plant response rating” value (morningglory [2]; 125 g ai/ha, visual rating) was 0. The “Morningglory plant response rating” value (morningglory [2]; 500 g ai/ha, visual rating) was 10, the “Barnyardgrass plant response rating (0 to 100 scale)” value (barnyardgrass [3]; [19]) was 0 and the “Plant response rating, Barnyardgrass” value (barnyardgrass [3]; [20]) was 0. For the same compound, the “Barnyardgrass plant response rating” value (barnyardgrass [3]; 125 g ai/ha, visual rating) was 0, the “Barnyardgrass plant response rating” value (barnyardgrass [3]; 500 g ai/ha, visual rating) was 0 and the “Surinam Grass plant response rating (0 to 100 scale)” value (Surinam grass; [19]) was 0. For the same compound, the “Plant response rating, Surinam Grass” value (Surinam grass; [20]) was 0, the “Surinam Grass plant response rating” value (Surinam grass; 125 g ai/ha, visual rating) was 0 and the “Surinam Grass plant response rating” value (Surinam grass; 500 g ai/ha, visual rating) was 10. The “Blackgrass plant response rating” value (blackgrass; 125 g ai/ha) was 0, the “Blackgrass plant response rating” value (blackgrass; 500 g ai/ha) was 0 and the “Barnyardgrass plant response rating” value (barnyardgrass [4]) was 0. The “Crabgrass, Large plant response rating (0 to 100 scale)” value (large crabgrass [5]; [19]) was 0, the “Plant response rating, Crabgrass, Large” value (large crabgrass [5]; [20]) was 0 and the “Crabgrass, Large plant response rating” value (large crabgrass [5]; 125 g ai/ha, visual rating) was 0. The “Crabgrass, Large plant response rating” value (large crabgrass [5]; 500 g ai/ha, visual rating) was 0, the “Velvetleaf plant response rating” value (velvetleaf [6]; [15]) was 5 and the “Plant response rating, Velvetleaf” value (velvetleaf [6]; [16]) was 30. The “Velvetleaf plant response rating” value (velvetleaf [6]; [17]) was 5, the “Velvetleaf plant response rating” value (velvetleaf [6]; [18]) was 0 and the “Lambsquarters plant response rating (0 to 100 scale)” value (lambsquarters; [19]) was 0. The “Plant response rating, Lambsquarters” value (lambsquarters; [20]) was 0, the “Lambsquarters plant response rating” value (lambsquarters; 125 g ai/ha, visual rating) was 0 and the “Lambsquarters plant response rating” value (lambsquarters; 500 g ai/ha, visual rating) was 0. The “Foxtail, Giant plant response rating” value (giant foxtail [7]; [15]) was 0, the “Plant response rating, Foxtail, Giant” value (giant foxtail [7]; [16]) was 0 and the “Foxtail, Giant plant response rating” value (giant foxtail [7]; [17]) was 10. For the same compound, the “Foxtail, Giant plant response rating” value (giant foxtail [7]; [18]) was 0, the “Ducksalad plant response rating” value (ducksalad) was 0 and the “Sedge, Umbrella plant response rating” value [8] was 0. For the same compound, the “Morningglory plant response rating” value (morningglory [9]; [15]) was 15, the “Plant response rating, Morningglory” value (morningglory [9]; [16]) was 25 and the “Morningglory plant response rating” value (morningglory [9]; [17]) was 0. For the same compound, the “Morningglory plant response rating” value (morningglory [9]; [18]) was 0, the “Pigweed plant response rating” value (redroot pigweed; [15]) was 10 and the “Plant response rating, Pigweed” value (redroot pigweed; [16]) was 25. The “Pigweed plant response rating” value (redroot pigweed; [17]) was 40, the “Pigweed plant response rating” value (redroot pigweed; [18]) was 0 and the “Rice plant response rating” value (rice [10]) was 0. The “Crabgrass, Large plant response rating” value (large crabgrass [11]; [15]) was 0, the “Plant response rating, Crabgrass, Large” value (large crabgrass [11]; [16]) was 20 and the “Crabgrass, Large plant response rating” value (large crabgrass [11]; [17]) was 10. The “Crabgrass, Large plant response rating” value (large crabgrass [11]; [18]) was 0, the “Rice plant response rating (0 to 100 scale)” value (rice [12]; 125 g ai/ha) was 0 and the “Plant response rating, Rice” value (rice [12]; 500 g ai/ha, visual rating) was 0. The “Cocklebur plant response rating (0 to 100 scale)” value (cocklebur; [19]) was 0, the “Plant response rating, Cocklebur” value (cocklebur; [20]) was 0 and the “Cocklebur plant response rating” value (cocklebur; 125 g ai/ha, visual rating) was 0. The “Cocklebur plant response rating” value (cocklebur; 500 g ai/ha, visual rating) was 0, the “Oat, Wild plant response rating” value (wild oat; 125 g ai/ha) was 0 and the “Oat, Wild plant response rating” value (wild oat; 500 g ai/ha) was 0. The “Corn plant response rating (0 to 100 scale)” value (corn; [19]) was 0, the “Plant response rating, Corn” value (corn; [20]) was 0 and the “Corn plant response rating” value (corn; 125 g ai/ha, visual rating) was 0. For the same compound, the “Corn plant response rating” value (corn; 500 g ai/ha, visual rating) was 0, the “Velvetleaf plant response rating (0 to 100 scale)” value (velvetleaf [13]; [19]) was 0 and the “Plant response rating, Velvetleaf” value (velvetleaf [13]; [20]) was 0. The “Velvetleaf plant response rating” value (velvetleaf [13]; 125 g ai/ha, visual rating) was 0, the “Velvetleaf plant response rating” value (velvetleaf [13]; 500 g ai/ha, visual rating) was 10 and the “Foxtail, Giant plant response rating (0 to 100 scale)” value (giant foxtail [14]; [19]) was 0. For the same compound, the “Plant response rating, Foxtail, Giant” value (giant foxtail [14]; [20]) was 0, the “Foxtail, Giant plant response rating” value (giant foxtail [14]; 125 g ai/ha, visual rating) was 0 and the “Foxtail, Giant plant response rating” value (giant foxtail [14]; 500 g ai/ha, visual rating) was 0. The “Pigweed plant response rating (0 to 100 scale)” value (pigweed; [19]) was 0, the “Plant response rating, Pigweed” value (pigweed; [20]) was 0 and the “Pigweed plant response rating” value (pigweed; 125 g ai/ha, visual rating) was 0. For the same compound, the “Pigweed plant response rating” value (pigweed; 500 g ai/ha, visual rating) was 0.
